Data: US12630552B2, “Inhibitors of KRAS G12C” (BEIGENE, LTD., priority 2019, dated 2026)

Each compound was assayed against T1, KRAS (aa 1-169) G12C, C51S, C80L, C118S (Homo sapiens, UniProt P01116, C118S/C51S/C80L/G12C) (assay: KRAS G12C SOS1-mediated nucleotide exchange / GST-cRaf RBD binding FRET assay). Settings: GDP-loaded KRAS G12C pre-incubated with compound at 24° C. for 3 hrs; SOS1, GTPγS and GST-cRaf RBD added; FRET 665 nm/620 nm.
T1 construct: The KRAS (aa 1-169) G12C, C51S, C80L, C118S with a His-tag; made in house
T1 sequence (P01116 1-169 isoform P01116-2 G12C/C51S/C80L/C118S): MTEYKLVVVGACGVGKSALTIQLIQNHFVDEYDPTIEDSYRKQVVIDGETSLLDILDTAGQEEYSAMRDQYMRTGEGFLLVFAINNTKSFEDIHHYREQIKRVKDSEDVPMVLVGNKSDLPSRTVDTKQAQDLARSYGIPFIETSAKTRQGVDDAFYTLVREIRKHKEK
Format: biochemical
Method: Biochemical Functional Assay:
The KRAS (aa 1-169) G12C, C51S, C80L, C118S with a His-tag was expressed, purified and loaded with GDP in house. All protein and substrate solutions were prepared in assay buffer containing 25 mM HEPES pH7.5, 10 mM MgCl2, and 0.01% Triton X-100. Purified GDP-loaded KRAS (aa 1-169) G12C, C51S, C80L, C118S protein was pre-incubated with a serially diluted compound at 24° C. for 3 hrs. Purified SOS1 (aa 564-1049) protein, GTPγS (Sigma) and GST-cRaf RBD (aa 1-149) were then added to each well and incubated at 24° C. for additional 3 hrs. […] Following the incubation, Mab Anti-6HIS-Tb cryptate (Cisbio) and Mab Anti GST-XL665 (Cisbio) were added and further incubated at 24° C. for 3 hrs. The binding interaction between active GTPγS KRAS G12C and GST-cRaf RBD brings the Tb and XL665 into close proximity enabling an increased FRET signal (Ex337 nm, Em665 nm/620 nm). The inhibition percentage of nucleotide exchange reaction in presence of increasing concentrations of compounds was calculated based on the ratio of fluorescence at 665 nm to that at 620 nm detected on a BMG PHERAstar FSX instrument. The IC50 value of each compound was calculated from fitting the data to the four-parameter logistic model by Dotmatics.
`C=CC(=O)N1CCN(c2nc(OC[C@@H]3CCCN3C)nc3c2CN(C(=O)c2cc(O)ccc2F)C3)C[C@@H]1CC#N` [Example 46] showed an IC50 of 172 nM.
`C=CC(=O)N1CCN(c2nc(OC[C@@H]3CCCN3C)nc3c2CN(C2CCc4ccccc42)C3)C[C@@H]1CC#N` (stereo partly drawn) [Example 45] gave an IC50 of 12.6 nM.
`C=CC(=O)N1CCN(c2nc(OC[C@@H]3CCCN3C)nc3c2CN(C(=O)c2cccc4cccc(Cl)c24)C3)C[C@@H]1CC#N` [Example 30, 2-((S)-1-acryloyl-4-(6-(8-chloro-1-naphthoyl)-2-(((S)-1-methylpyrrolidin-2-yl)methoxy)-6,7-dihydro-5H-pyrrolo[3,4-d]pyrimidin-4-yl)piperazin-2-yl)acetonitrile] showed an IC50 of 15 nM.
Compound `C=CS(=O)(=O)N1CCN(c2nc(OC[C@@H]3CCCN3C)nc3c2CN(Cc2cccc4ccccc24)C3)CC1` [Example 3, (S)-2-((1-methylpyrrolidin-2-yl)methoxy)-6-(naphthalen-1-ylmethyl)-4-(4-(vinylsulfonyl)piperazin-1-yl)-6,7-dihydro-5H-pyrrolo[3,4-d]pyrimidine] has an IC50 of 23700 nM.
`C=CC(=O)N1CCN(c2nc(OC[C@@H]3CCCN3C)nc3c2CN(Cc2cccc4ccccc24)C3)C[C@@H]1CC#N` [Example 6, 2-((S)-1-acryloyl-4-(2-(((S)-1-methylpyrrolidin-2-yl)methoxy)-6-(naphthalen-1-ylmethyl)-6,7-dihydro-5H-pyrrolo[3,4-d]pyrimidin-4-yl)piperazin-2-yl)acetonitrile] showed an IC50 of 27.7 nM.
`C=CC(=O)N1CCN(c2nc(OC[C@@H]3CCCN3C)nc3c2CN(Cc2cccc4ccccc24)C3)CC1` [Example 1, (S)-1-(4-(2-((1-methylpyrrolidin-2-yl)methoxy)-6-(naphthalen-1-ylmethyl)-6,7-dihydro-5H-pyrrolo[3,4-d]pyrimidin-4-yl)piperazin-1-yl)prop-2-en-1-one] gave an IC50 of 3280 nM.
`C=CC(=O)N1CCN(c2nc(OC3CCN(C)CC3)nc3c2CN(Cc2cccc4ccccc24)C3)C[C@@H]1CC#N` [Example 18, (S)-2-(1-acryloyl-4-(2-((1-methylpiperidin-4-yl)oxy)-6-(naphthalen-1-ylmethyl)-6,7-dihydro-5H-pyrrolo[3,4-d]pyrimidin-4-yl)piperazin-2-yl)acetonitrile] gave an IC50 of 1560 nM.
For `C=CC(=O)N1CCN(c2nc(OC[C@@H]3CCCN3C)nc3c2CN(Cc2cccc4cccc(O)c24)C3)C[C@@H]1CC#N` [Example 24, 2-((S)-1-acryloyl-4-(6-((8-hydroxynaphthalen-1-yl)methyl)-2-(((S)-1-methylpyrrolidin-2-yl)methoxy)-6,7-dihydro-5H-pyrrolo[3,4-d]pyrimidin-4-yl)piperazin-2-yl)acetonitrile], the IC50 was 101 nM.
For `C=CC(=O)N1CCN(c2nc(OC[C@@H]3CCCN3C)nc3c2CN(C(=O)c2c(C)ccc4[nH]ncc24)C3)C[C@@H]1CC#N` [Example 31, 2-((S)-1-acryloyl-4-(6-(5-methyl-1H-indazole-4-carbonyl)-2-(((S)-1-methylpyrrolidin-2-yl)methoxy)-6,7-dihydro-5H-pyrrolo[3,4-d]pyrimidin-4-yl)piperazin-2-yl)acetonitrile], the IC50 was 301 nM.
In the case of `C=CC(=O)N1CCN(c2nc(OC[C@@H]3CCCN3C)nc3c2CN(Cc2c(O)cccc2F)C3)C[C@@H]1CC#N` [Example 23, 2-((S)-1-acryloyl-4-(6-(2-fluoro-6-hydroxybenzyl)-2-(((S)-1-methylpyrrolidin-2-yl)methoxy)-6,7-dihydro-5H-pyrrolo[3,4-d]pyrimidin-4-yl)piperazin-2-yl)acetonitrile], the IC50 is reported as 28.1 nM.
`C=CC(=O)N1CCN(c2nc(OC[C@@H]3CCCN3C)nc3c2CN(Cc2cccc4cccc(C)c24)C3)C[C@@H]1CC#N` [Example 8, 2-((S)-1-acryloyl-4-(6-((8-methylnaphthalen-1-yl)methyl)-2-(((S)-1-methylpyrrolidin-2-yl)methoxy)-6,7-dihydro-5H-pyrrolo[3,4-d]pyrimidin-4-yl)piperazin-2-yl)acetonitrile] showed an IC50 of 495 nM.
With `C=CC(=O)N1CCN(c2nc(OC[C@@H]3CCCN3C)nc3c2CN(Cc2ccc4ccccc4c2)C3)C[C@@H]1CC#N` [Example 20, 2-((S)-1-acryloyl-4-(2-(((S)-1-methylpyrrolidin-2-yl)methoxy)-6-(naphthalen-2-ylmethyl)-6,7-dihydro-5H-pyrrolo[3,4-d]pyrimidin-4-yl)piperazin-2-yl)acetonitrile] the IC50 was 2880 nM.
`C=CC(=O)N1CCN(c2nc(N3CC(N(C)C)C3)nc3c2CN(C2Cc4cccc5cccc2c45)C3)CC1CC#N` (single isomer, unassigned) [Example 16 (P1)] showed an IC50 of 5650 nM.
`C=CC(=O)N1CCN(c2nc(OC3CCN(C)CC3)nc3c2CN(C2Cc4cccc5cccc2c45)C3)CC1CC#N` (single isomer, unassigned) [Example 17 (P1)] showed an IC50 of 2200 nM.
`C=CC(=O)N1CCN(c2nc(OC[C@@H]3CCCN3C)nc3c2CN(Cc2cccc(C)c2Cl)C3)C[C@@H]1CC#N` [Example 53] gave an IC50 of 14.9 nM.
With `C=CC(=O)N1CCN(c2nc(N3CC(N(C)C)C3)nc3c2CN(C2Cc4cccc5cccc2c45)C3)CC1CC#N` (single isomer, unassigned) [Example 16 (P2)] the IC50 was 256 nM.
`C=CC(=O)N1CCN(c2nc(OC[C@@H]3CCCN3C)nc3c2CN(C(=O)c2cc(O)cc4ccccc24)C3)C[C@@H]1CC#N` [Example 29, 2-((S)-1-acryloyl-4-(6-(3-hydroxy-1-naphthoyl)-2-(((S)-1-methylpyrrolidin-2-yl)methoxy)-6,7-dihydro-5H-pyrrolo[3,4-d]pyrimidin-4-yl)piperazin-2-yl)acetonitrile] gave an IC50 of 2.42 nM.
`C=CC(=O)N1CCN(c2nc(OC[C@@H]3CCCN3C)nc3c2CN(C2Cc4cccc5cc(O)cc2c45)C3)C[C@@H]1CC#N` (stereo partly drawn) [Example 55] was tested, and the IC50 was less than 5.1 nM.
`C=CC(=O)N1CCN(c2nc(OC[C@@H]3CCCN3C)nc3c2CN(C(=O)c2cccc4cccc(C5CC5)c24)C3)C[C@@H]1CC#N` [Example 35, 2-((S)-1-acryloyl-4-(6-(8-cyclopropyl-1-naphthoyl)-2-(((S)-1-methylpyrrolidin-2-yl)methoxy)-6,7-dihydro-5H-pyrrolo[3,4-d]pyrimidin-4-yl)piperazin-2-yl)acetonitrile] showed an IC50 of 256 nM.
With `C=CC(=O)N1CCN(c2nc(OC[C@@H]3CCCN3C)nc3c2CN(Cc2c(C)ccc4[nH]ncc24)C3)C[C@@H]1CC#N` [Example 41, 2-((S)-1-acryloyl-4-(6-((5-methyl-1H-indazol-4-yl)methyl)-2-(((S)-1-methylpyrrolidin-2-yl)methoxy)-6,7-dihydro-5H-pyrrolo[3,4-d]pyrimidin-4-yl)piperazin-2-yl)acetonitrile] the IC50 was 77.2 nM.
For `C=CC(=O)N1CCN(c2nc(OC[C@@H]3CCCN3C)nc3c2CN(C(=O)c2cccc4ccccc24)C3)C[C@@H]1CC#N` [Example 32, 2-((S)-4-(6-(1-naphthoyl)-2-(((S)-1-methylpyrrolidin-2-yl)methoxy)-6,7-dihydro-5H-pyrrolo[3,4-d]pyrimidin-4-yl)-1-acryloylpiperazin-2-yl)acetonitrile], the IC50 was 39.5 nM.
Work on `C=CC(=O)N1CCN(c2nc(OC[C@@H]3CCCN3C)nc3c2CN(C(=O)Nc2cccc4ccccc24)C3)C[C@@H]1CC#N` [Example 38, 4-((S)-4-acryloyl-3-(cyanomethyl)piperazin-1-yl)-2-(((S)-1-methylpyrrolidin-2-yl)methoxy)-N-(naphthalen-1-yl)-5,7-dihydro-6H-pyrrolo[3,4-d]pyrimidine-6-carboxamide] yielded an IC50 of 1570 nM.
In the case of `C=CC(=O)N1CCN(c2nc(OC[C@@H]3CCCN3C)nc3cn(Cc4cccc5ccccc45)cc23)C[C@@H]1CC#N` [Example 7, 2-((S)-1-acryloyl-4-(2-(((S)-1-methylpyrrolidin-2-yl)methoxy)-6-(naphthalen-1-ylmethyl)-6H-pyrrolo[3,4-d]pyrimidin-yl)piperazin-2-yl)acetonitrile], the IC50 is reported as 174 nM.
`C=CC(=O)N1CCN(c2nc(OC[C@@H]3CCCN3C)nc3c2CN(C(=O)c2cccc4cccc(C)c24)C3)C[C@@H]1CC#N` [Example 33, 2-((S)-1-acryloyl-4-(6-(8-methyl-1-naphthoyl)-2-(((S)-1-methylpyrrolidin-2-yl)methoxy)-6,7-dihydro-5H-pyrrolo[3,4-d]pyrimidin-4-yl)piperazin-2-yl)acetonitrile] gave an IC50 of 22.4 nM.
Compound `C=CC(=O)N1CCN(c2nc(OC[C@@H]3CCCN3C)nc3c2CN(c2ccc4ccccc4c2)C3)C[C@@H]1CC#N` [Example 26] has an IC50 of 1080 nM.
`CN(C)C/C=C/C(=O)N1CCN(c2nc(OC[C@@H]3CCCN3C)nc3c2CN(Cc2cccc4ccccc24)C3)CC1` [Example 2, (S, E)-4-(dimethylamino)-1-(4-(2-((1-methylpyrrolidin-2-yl)methoxy)-6-(naphthalen-1-ylmethyl)-6,7-dihydro-5H-pyrrolo[3,4-d]pyrimidin-4-yl)piperazin-1-yl)but-2-en-1-one] showed an IC50 of 46000 nM.
With `C=CC(=O)N1CCN(c2nc(OC[C@@H]3CCCN3C)nc3c2CN(C(=O)c2cccc4cccc(O)c24)C3)C[C@@H]1CC#N` [Example 56] the IC50 was 941 nM.
